Laboratory results as given in patent US10710978B2, “STK4 inhibitors for treatment of hematologic malignancies” (Dana-Farber Cancer Institute, Inc., priority 2015, dated 2020).
pIC50: −log10 of the molar value. Like-named read-outs stand apart in the source and are kept apart here.

Tests used:
CaMK1d = CaMK1d (Homo sapiens (Human), UniProt Q8IU85); assay: KiNativ assay; type: binding; settings: H929 live cell
Procedure: (§1) Biochemical IC50s of the compounds of the present disclosure against various kinases were measured in a KiNativ assay. Compounds were screened in duplicate at 10 μM in H929 live cell. IC50 was measured via Mass spectroscopy (MS).

AMPKa1, AMPKa2 = assay: KiNativ assay; type: binding; settings: H929 live cell; for % inhibition: 10 μM, range class
Procedure: as §1

NDR2 = NDR2 (Homo sapiens (Human), UniProt Q9Y2H1); assay: KiNativ assay; type: binding; settings: H929 live cell
Procedure: as §1

MST3 = MST3 (Homo sapiens (Human), UniProt Q9Y6E0); assay: KiNativ assay; type: binding; settings: H929 live cell
Procedure: as §1

Erk2 = Erk2 (Homo sapiens (Human), UniProt P28482); assay: KiNativ assay; type: binding; settings: H929 live cell
Procedure: as §1

MAP3K2 = MAP3K2 (Homo sapiens (Human), UniProt Q9Y2U5); assay: KiNativ assay; type: binding; settings: H929 live cell
Procedure: as §1

MAPKAPK2, MAPKAPK3 = assay: KiNativ assay; type: binding; settings: H929 live cell; for % inhibition: 10 μM, range class
Procedure: as §1

NEK3 = NEK3 (Homo sapiens (Human), UniProt P51956); assay: KiNativ assay; type: binding; settings: H929 live cell
Procedure: as §1

IRE1 = IRE1 (Homo sapiens (Human), UniProt O75460); assay: KiNativ assay; type: binding; settings: H929 live cell
Procedure: as §1

NEK8 = NEK8 (Homo sapiens (Human), UniProt Q86SG6); assay: KiNativ assay; type: binding; settings: H929 live cell
Procedure: as §1

PIK3CB = PIK3CB (Homo sapiens (Human), UniProt P42338); assay: KiNativ assay; type: binding; settings: H929 live cell
Procedure: as §1

MST1 = MST1 (Homo sapiens (Human), UniProt Q13043); assay: KiNativ assay; type: binding; settings: H929 live cell
Procedure: as §1

CSK = CSK (Homo sapiens (Human), UniProt P41240); assay: KiNativ assay; type: binding; settings: H929 live cell
Procedure: as §1

[1] = test system: CaMK2a, CaMK2b, CaMK2d, CaMK2g; assay: KiNativ assay; type: binding; settings: H929 live cell; for % inhibition: 10 μM, range class
Procedure: as §1

MAST3 = MAST3 (Homo sapiens (Human), UniProt O60307); assay: KiNativ assay; type: binding; settings: H929 live cell
Procedure: as §1

NEK1 = NEK1 (Homo sapiens (Human), UniProt Q96PY6); assay: KiNativ assay; type: binding; settings: H929 live cell
Procedure: as §1

MAP2K1, MAP2K2 = assay: KiNativ assay; type: binding; settings: 10 μM, H929 live cell; range class
Procedure: as §1

PFTAIRE1 = PFTAIRE1 (Homo sapiens (Human), UniProt O94921); assay: KiNativ assay; type: binding; settings: H929 live cell
Procedure: as §1

AKT1 = AKT1 (Homo sapiens (Human), UniProt P31749); assay: KiNativ assay; type: binding; settings: H929 live cell
Procedure: as §1

STLK6 = STLK6 (Homo sapiens (Human), UniProt Q9C0K7); assay: KiNativ assay; type: binding; settings: H929 live cell
Procedure: as §1

LATS1 = LATS1 (Homo sapiens (Human), UniProt O95835); assay: KiNativ assay; type: binding; settings: H929 live cell
Procedure: as §1

TBK1 = TBK1 (Homo sapiens (Human), UniProt Q9UHD2); assay: KiNativ assay; type: binding; settings: H929 live cell
Procedure: as §1

IKKa = IKKa (Homo sapiens (Human), UniProt O15111); assay: KiNativ assay; type: binding; settings: H929 live cell
Procedure: as §1

ABL, ARG = assay: KiNativ assay; type: binding; settings: H929 live cell; for % inhibition: 10 μM, range class
Procedure: as §1

TAO2 = TAO2 (Homo sapiens (Human), UniProt Q9UL54); assay: KiNativ assay; type: binding; settings: H929 live cell
Procedure: as §1

AurA = AurA (Homo sapiens (Human), UniProt O14965); assay: KiNativ assay; type: binding; settings: H929 live cell
Procedure: as §1

LYN = LYN (Homo sapiens (Human), UniProt P07948); assay: KiNativ assay; type: binding; settings: H929 live cell
Procedure: as §1

STK4 (MST1) = STK4 (MST1) (Homo sapiens (Human), UniProt Q13043); assay: Z-lyte biochemical IC50 assay (Invitrogen); settings: ATP concentration matched the Km
How it was run: (§2)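 FRET-based Z-lyte kinase assays run at Invitrogen, ATP at each kinase's Km; for STK4, 6.25-160 ng enzyme with 2 μM Ser/Thr 07 peptide in HEPES pH 7.5, MgCl2, EGTA, Brij-35, 1 h reaction then development reagent. 10-point 3-fold titration from 10 μM.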

STK24 (MST3) = STK24 (MST3) (Homo sapiens (Human), UniProt Q9Y6E0); assay: Z-lyte biochemical IC50 assay (Invitrogen); settings: ATP concentration matched the Km
How it was run: as §2

[2] = range class, read-out: % inhibition

Chain of NDR2 (Q9Y2H1 whole entry): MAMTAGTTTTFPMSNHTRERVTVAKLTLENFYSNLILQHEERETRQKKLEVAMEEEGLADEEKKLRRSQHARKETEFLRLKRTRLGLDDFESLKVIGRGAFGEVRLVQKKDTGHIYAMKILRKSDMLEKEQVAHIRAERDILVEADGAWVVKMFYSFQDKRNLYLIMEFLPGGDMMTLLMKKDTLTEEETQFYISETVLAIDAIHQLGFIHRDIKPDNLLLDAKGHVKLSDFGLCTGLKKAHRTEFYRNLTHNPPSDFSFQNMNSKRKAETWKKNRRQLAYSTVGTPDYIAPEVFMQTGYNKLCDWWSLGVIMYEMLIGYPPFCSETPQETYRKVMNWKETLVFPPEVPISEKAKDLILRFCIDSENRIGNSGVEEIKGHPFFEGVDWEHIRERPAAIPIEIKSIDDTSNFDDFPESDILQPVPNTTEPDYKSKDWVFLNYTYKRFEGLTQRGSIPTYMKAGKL
Chain of MST1 (Q13043 whole entry): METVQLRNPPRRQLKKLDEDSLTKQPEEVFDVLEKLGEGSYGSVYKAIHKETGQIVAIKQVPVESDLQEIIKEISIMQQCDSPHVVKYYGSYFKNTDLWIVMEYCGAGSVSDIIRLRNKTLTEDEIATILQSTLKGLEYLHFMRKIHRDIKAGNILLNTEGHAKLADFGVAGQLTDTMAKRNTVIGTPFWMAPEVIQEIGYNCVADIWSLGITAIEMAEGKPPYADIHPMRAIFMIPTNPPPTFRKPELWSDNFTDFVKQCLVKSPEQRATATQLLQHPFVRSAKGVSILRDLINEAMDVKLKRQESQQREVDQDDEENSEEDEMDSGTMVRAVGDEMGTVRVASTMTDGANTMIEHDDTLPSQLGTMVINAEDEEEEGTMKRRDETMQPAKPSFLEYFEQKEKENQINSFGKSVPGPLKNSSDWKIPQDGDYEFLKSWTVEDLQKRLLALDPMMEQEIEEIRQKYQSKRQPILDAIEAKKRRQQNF
Chain of MAP3K2 (Q9Y2U5 whole entry): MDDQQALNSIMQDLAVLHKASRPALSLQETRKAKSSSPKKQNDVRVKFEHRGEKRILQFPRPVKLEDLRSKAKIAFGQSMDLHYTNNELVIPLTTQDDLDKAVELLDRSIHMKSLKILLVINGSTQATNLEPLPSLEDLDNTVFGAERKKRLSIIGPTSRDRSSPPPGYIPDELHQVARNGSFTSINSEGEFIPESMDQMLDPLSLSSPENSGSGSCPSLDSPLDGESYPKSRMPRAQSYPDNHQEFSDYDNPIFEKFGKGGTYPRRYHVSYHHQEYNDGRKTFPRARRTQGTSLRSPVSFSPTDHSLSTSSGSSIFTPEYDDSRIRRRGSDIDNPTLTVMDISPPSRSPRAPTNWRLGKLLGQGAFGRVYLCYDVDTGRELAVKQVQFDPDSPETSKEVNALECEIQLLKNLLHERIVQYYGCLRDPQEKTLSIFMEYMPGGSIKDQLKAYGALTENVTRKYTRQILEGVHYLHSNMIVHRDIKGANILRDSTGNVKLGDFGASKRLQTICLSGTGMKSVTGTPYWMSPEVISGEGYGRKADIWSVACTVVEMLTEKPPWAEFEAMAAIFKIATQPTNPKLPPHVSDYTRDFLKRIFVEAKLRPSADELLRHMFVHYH
Chain of LYN (P07948 whole entry): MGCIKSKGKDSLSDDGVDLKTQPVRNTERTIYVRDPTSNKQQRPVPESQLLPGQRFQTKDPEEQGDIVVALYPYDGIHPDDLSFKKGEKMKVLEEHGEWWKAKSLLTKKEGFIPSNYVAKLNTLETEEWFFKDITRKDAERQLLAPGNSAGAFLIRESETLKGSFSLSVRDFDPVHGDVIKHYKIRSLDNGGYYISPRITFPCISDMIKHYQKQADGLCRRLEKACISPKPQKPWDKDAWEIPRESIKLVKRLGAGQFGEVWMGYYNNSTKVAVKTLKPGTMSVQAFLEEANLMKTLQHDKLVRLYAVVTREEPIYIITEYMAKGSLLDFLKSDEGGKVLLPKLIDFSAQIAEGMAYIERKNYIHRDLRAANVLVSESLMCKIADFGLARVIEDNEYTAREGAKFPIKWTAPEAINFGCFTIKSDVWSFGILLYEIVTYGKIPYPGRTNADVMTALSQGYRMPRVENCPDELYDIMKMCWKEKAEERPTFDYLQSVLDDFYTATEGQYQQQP
Chain of CaMK1d (Q8IU85 whole entry): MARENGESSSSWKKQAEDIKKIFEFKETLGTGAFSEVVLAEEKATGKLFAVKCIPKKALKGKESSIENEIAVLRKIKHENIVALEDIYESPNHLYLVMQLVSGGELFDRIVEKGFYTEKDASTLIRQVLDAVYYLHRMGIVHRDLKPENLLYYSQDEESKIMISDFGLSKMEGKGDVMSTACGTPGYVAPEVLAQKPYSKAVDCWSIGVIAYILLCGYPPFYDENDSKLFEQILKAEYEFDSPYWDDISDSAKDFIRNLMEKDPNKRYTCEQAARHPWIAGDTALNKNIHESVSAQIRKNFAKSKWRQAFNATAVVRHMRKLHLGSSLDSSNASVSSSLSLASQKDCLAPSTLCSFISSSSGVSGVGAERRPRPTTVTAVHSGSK
Chain of PIK3CB (P42338 whole entry): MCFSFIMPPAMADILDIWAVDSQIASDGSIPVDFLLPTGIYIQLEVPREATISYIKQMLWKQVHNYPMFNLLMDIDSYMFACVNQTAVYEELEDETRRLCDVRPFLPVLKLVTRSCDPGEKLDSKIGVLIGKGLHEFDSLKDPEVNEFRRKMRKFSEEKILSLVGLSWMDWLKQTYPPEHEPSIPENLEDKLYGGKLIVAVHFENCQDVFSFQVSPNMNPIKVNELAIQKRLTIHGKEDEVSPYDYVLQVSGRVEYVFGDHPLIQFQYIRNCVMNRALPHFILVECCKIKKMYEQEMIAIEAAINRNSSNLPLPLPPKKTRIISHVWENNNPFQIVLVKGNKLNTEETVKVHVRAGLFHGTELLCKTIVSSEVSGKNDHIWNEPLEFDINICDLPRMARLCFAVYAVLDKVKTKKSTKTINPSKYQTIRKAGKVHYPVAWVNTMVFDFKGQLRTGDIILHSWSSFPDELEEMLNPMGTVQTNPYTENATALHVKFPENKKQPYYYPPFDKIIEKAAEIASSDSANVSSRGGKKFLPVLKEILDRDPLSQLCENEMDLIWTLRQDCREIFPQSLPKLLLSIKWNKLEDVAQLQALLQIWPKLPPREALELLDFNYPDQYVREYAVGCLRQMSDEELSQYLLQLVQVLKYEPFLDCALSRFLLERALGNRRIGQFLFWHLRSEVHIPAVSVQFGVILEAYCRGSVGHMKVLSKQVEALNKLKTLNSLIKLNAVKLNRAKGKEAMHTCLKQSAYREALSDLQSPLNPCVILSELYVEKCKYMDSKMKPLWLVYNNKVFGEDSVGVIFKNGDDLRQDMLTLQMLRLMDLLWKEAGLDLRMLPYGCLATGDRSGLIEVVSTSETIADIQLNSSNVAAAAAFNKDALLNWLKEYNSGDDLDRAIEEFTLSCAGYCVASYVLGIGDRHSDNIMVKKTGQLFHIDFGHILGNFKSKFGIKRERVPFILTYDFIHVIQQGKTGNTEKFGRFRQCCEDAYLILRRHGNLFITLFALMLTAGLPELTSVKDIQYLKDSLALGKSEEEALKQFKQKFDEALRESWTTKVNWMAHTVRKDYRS
Chain of PIK3CB (P27986 whole entry partner): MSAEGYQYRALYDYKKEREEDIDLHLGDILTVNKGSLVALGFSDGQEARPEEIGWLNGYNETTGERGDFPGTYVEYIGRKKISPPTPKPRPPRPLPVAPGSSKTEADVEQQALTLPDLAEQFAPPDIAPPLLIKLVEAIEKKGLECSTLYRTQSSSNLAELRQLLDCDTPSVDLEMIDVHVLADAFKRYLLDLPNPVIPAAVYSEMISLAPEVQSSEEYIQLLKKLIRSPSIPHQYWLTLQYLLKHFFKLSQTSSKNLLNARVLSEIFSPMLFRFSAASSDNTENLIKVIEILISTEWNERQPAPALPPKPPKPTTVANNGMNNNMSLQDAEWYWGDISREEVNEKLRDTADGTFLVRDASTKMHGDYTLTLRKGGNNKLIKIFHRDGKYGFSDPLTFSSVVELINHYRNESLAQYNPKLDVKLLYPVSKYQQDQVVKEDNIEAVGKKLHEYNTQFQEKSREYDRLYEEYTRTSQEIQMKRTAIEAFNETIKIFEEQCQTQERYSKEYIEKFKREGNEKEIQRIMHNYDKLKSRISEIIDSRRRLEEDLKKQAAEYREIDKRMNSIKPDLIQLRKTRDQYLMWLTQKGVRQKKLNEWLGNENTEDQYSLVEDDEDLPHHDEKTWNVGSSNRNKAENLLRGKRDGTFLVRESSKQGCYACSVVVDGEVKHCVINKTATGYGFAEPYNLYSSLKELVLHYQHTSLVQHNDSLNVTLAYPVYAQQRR
Chain of NEK8 (Q86SG6 whole entry): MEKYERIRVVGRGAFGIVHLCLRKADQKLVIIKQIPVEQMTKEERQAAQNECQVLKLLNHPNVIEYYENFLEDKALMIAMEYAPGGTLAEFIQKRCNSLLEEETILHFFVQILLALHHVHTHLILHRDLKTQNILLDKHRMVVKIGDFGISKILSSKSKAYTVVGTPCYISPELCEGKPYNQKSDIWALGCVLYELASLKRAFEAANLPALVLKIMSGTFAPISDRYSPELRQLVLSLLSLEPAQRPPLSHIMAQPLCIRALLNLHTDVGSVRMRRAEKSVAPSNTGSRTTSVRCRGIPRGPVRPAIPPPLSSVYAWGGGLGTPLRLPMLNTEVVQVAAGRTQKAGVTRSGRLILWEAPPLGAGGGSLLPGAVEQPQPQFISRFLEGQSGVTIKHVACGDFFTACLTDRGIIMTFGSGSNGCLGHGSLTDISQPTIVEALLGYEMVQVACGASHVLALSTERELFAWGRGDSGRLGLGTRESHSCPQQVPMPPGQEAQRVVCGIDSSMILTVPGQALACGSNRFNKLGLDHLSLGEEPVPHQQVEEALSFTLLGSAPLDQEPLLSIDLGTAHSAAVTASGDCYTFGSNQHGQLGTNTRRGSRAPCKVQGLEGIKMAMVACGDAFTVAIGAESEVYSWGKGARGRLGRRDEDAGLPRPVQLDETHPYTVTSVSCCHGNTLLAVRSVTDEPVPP
Chain of STK4 (MST1) (Q13043 whole entry): as the sequence (Q13043 whole entry) above

Compound: Nc1ncc(-c2ccc(NS(=O)(=O)C3CC3)cc2F)cc1-c1ccc2c(c1)CCNC2=O [Compound I-51, N-(4-(6-amino-5-(1-oxo-1,2,3,4-tetrahydroisoquinolin-6-yl)pyridin-3-yl)-3-fluorophenyl) cyclopropanesulfonamide]
- inhibition at 10 µM (CaMK1d; [2]): 0%
- inhibition at 10 µM (CaMK1d; read-out: inhibition (10 μM)): -1.7%
- % inhibition (AMPKa1, AMPKa2): 0.0%
- inhibition (10 μM) (AMPKa1, AMPKa2): −20.5%
- inhibition at 10 µM (NDR2; [2]): 0%
- inhibition at 10 µM (NDR2; read-out: inhibition (10 μM)): 8.4%
- inhibition at 10 µM (MST3; [2]): 50 to 75%
- inhibition at 10 µM (MST3; read-out: inhibition (10 μM)): 53.3%
- inhibition at 10 µM (Erk2; [2]): 0%
- inhibition at 10 µM (Erk2; read-out: inhibition (10 μM)): 31.8%
- inhibition at 10 µM (MAP3K2; [2]): 0%
- inhibition at 10 µM (MAP3K2; read-out: inhibition (10 μM)): -11.2%
- % inhibition (MAPKAPK2, MAPKAPK3): 0.0%
- inhibition (10 μM) (MAPKAPK2, MAPKAPK3): −65.2%
- inhibition at 10 µM (NEK3; [2]): 0%
- inhibition at 10 µM (NEK3; read-out: inhibition (10 μM)): -13%
- inhibition at 10 µM (IRE1; [2]): 0%
- inhibition at 10 µM (IRE1; read-out: inhibition (10 μM)): -43.1%
- inhibition at 10 µM (NEK8; [2]): 0%
- inhibition at 10 µM (NEK8; read-out: inhibition (10 μM)): -8.1%
- inhibition at 10 µM (PIK3CB; [2]): 0%
- inhibition at 10 µM (PIK3CB; read-out: inhibition (10 μM)): 7.2%
- inhibition at 10 µM (MST1; [2]): > 90%
- inhibition at 10 µM (MST1; read-out: inhibition (10 μM)): 96.3%
- inhibition at 10 µM (CSK; [2]): 0%
- inhibition at 10 µM (CSK; read-out: inhibition (10 μM)): 6.9%
- % inhibition [1]: 0.0%
- inhibition (10 μM) [1]: 19.2%
- inhibition at 10 µM (MAST3; [2]): 0%
- inhibition at 10 µM (MAST3; read-out: inhibition (10 μM)): 7%
- inhibition at 10 µM (NEK1; [2]): 0%
- inhibition at 10 µM (NEK1; read-out: inhibition (10 μM)): 30.2%
- % inhibition (MAP2K1, MAP2K2): 0.0%
- inhibition at 10 µM (PFTAIRE1; [2]): 0%
- inhibition at 10 µM (PFTAIRE1; read-out: inhibition (10 μM)): 8.8%
- inhibition at 10 µM (AKT1; [2]): 0%
- inhibition at 10 µM (AKT1; read-out: inhibition (10 μM)): -15.2%
- inhibition at 10 µM (STLK6; [2]): 0%
- inhibition at 10 µM (STLK6; read-out: inhibition (10 μM)): -15%
- inhibition at 10 µM (LATS1; [2]): 0%
- inhibition at 10 µM (LATS1; read-out: inhibition (10 μM)): 3.9%
- inhibition at 10 µM (TBK1; [2]): 35 to 40%
- inhibition at 10 µM (TBK1; read-out: inhibition (10 μM)): 35.8%
- inhibition at 10 µM (IKKa; [2]): 0%
- inhibition at 10 µM (IKKa; read-out: inhibition (10 μM)): -17.3%
- % inhibition (ABL, ARG): 0.0%
- inhibition (10 μM) (ABL, ARG): −3.0%
- inhibition at 10 µM (TAO2; [2]): 35 to 40%
- inhibition at 10 µM (TAO2; read-out: inhibition (10 μM)): 40.9%
- inhibition (10 μM) (AurA): 43.2%
- inhibition at 10 µM (AurA; [2]): 35 to 40%
- inhibition at 10 µM (AurA; read-out: inhibition (10 μM)): 46.7%
- inhibition at 10 µM (LYN; [2]): 0%
- inhibition at 10 µM (LYN; read-out: inhibition (10 μM)): -21.9%
- pIC50 (STK4 (MST1)): > 7.40
- pIC50 (STK24 (MST3)): 6.70 to 7.40

Compound: Nc1ncc(-c2ccc(NS(=O)(=O)C3CC3)cc2OC2CCCCC2)cc1-c1ccc2c(c1)CCNC2=O [Compound I-65, N-(4-(6-amino-5-(1-oxo-1,2,3,4-tetrahydroisoquinolin-6-yl)pyridin-3-yl)-3-(cyclohexyloxy)phenyl) cyclopropanesulfonamide]
- inhibition at 10 µM (CaMK1d; [2]): 0%
- inhibition at 10 µM (CaMK1d; read-out: inhibition (10 μM)): 0.4%
- % inhibition (AMPKa1, AMPKa2): 35-40%
- inhibition (10 μM) (AMPKa1, AMPKa2): 39.0%
- inhibition at 10 µM (NDR2; [2]): 0%
- inhibition at 10 µM (NDR2; read-out: inhibition (10 μM)): -8.7%
- inhibition at 10 µM (MST3; [2]): 0%
- inhibition at 10 µM (MST3; read-out: inhibition (10 μM)): 31.5%
- inhibition at 10 µM (Erk2; [2]): 0%
- inhibition at 10 µM (Erk2; read-out: inhibition (10 μM)): -29.6%
- inhibition at 10 µM (MAP3K2; [2]): 0%
- inhibition at 10 µM (MAP3K2; read-out: inhibition (10 μM)): -3.9%
- % inhibition (MAPKAPK2, MAPKAPK3): 0.0%
- inhibition (10 μM) (MAPKAPK2, MAPKAPK3): −52.2%
- inhibition at 10 µM (NEK3; [2]): 0%
- inhibition at 10 µM (NEK3; read-out: inhibition (10 μM)): -18.4%
- inhibition at 10 µM (IRE1; [2]): 0%
- inhibition at 10 µM (IRE1; read-out: inhibition (10 μM)): -6.3%
- inhibition at 10 µM (NEK8; [2]): 0%
- inhibition at 10 µM (NEK8; read-out: inhibition (10 μM)): -1.7%
- inhibition at 10 µM (PIK3CB; [2]): 0%
- inhibition at 10 µM (PIK3CB; read-out: inhibition (10 μM)): 14.6%
- inhibition at 10 µM (MST1; [2]): > 90%
- inhibition at 10 µM (MST1; read-out: inhibition (10 μM)): 96.7%
- inhibition at 10 µM (CSK; [2]): 0%
- inhibition at 10 µM (CSK; read-out: inhibition (10 μM)): 0.1%
- % inhibition [1]: 0.0%
- inhibition (10 μM) [1]: 12.8%
- inhibition at 10 µM (MAST3; [2]): 0%
- inhibition at 10 µM (MAST3; read-out: inhibition (10 μM)): -7.5%
- inhibition at 10 µM (NEK1; [2]): 0%
- inhibition at 10 µM (NEK1; read-out: inhibition (10 μM)): 9.3%
- % inhibition (MAP2K1, MAP2K2): 0.0%
- inhibition at 10 µM (PFTAIRE1; [2]): 0%
- inhibition at 10 µM (PFTAIRE1; read-out: inhibition (10 μM)): -5.1%
- inhibition at 10 µM (AKT1; [2]): 0%
- inhibition at 10 µM (AKT1; read-out: inhibition (10 μM)): 1.6%
- inhibition at 10 µM (STLK6; [2]): 0%
- inhibition at 10 µM (STLK6; read-out: inhibition (10 μM)): -15.9%
- inhibition at 10 µM (LATS1; [2]): 0%
- inhibition at 10 µM (LATS1; read-out: inhibition (10 μM)): 33.8%
- inhibition at 10 µM (TBK1; [2]): 50 to 75%
- inhibition at 10 µM (TBK1; read-out: inhibition (10 μM)): 74.6%
- inhibition at 10 µM (IKKa; [2]): 0%
- inhibition at 10 µM (IKKa; read-out: inhibition (10 μM)): -34.3%
- % inhibition (ABL, ARG): 0.0%
- inhibition (10 μM) (ABL, ARG): −2.8%
- inhibition at 10 µM (TAO2; [2]): 0%
- inhibition at 10 µM (TAO2; read-out: inhibition (10 μM)): 8.3%
- inhibition (10 μM) (AurA): 40.2%
- inhibition at 10 µM (AurA; [2]): 35 to 40%
- inhibition at 10 µM (AurA; read-out: inhibition (10 μM)): 45.4%
- inhibition at 10 µM (LYN; [2]): 0%
- inhibition at 10 µM (LYN; read-out: inhibition (10 μM)): -1.3%
- pIC50 (STK4 (MST1)): > 7.40
- pIC50 (STK24 (MST3)): < 6.05
